Values belong to the molecule of their own block, whether it stands above or below them.
Columns and labels:
[1] = test system: CMPTX-labeled tumor cells across HMVEC-DBl; assay: modified Boyden chamber, trans-endothelial tumor cell migration, HMVEC-DBl; type: cell-based, human; conditions: Fig1E
Description: ECs were first treated with Vasculotide (VT), PBS (vehicle/negative control), Ang1 (positive control), PEG-Cys (polyethylene glycol backbone), T7c (non-PEGylated CHHHRHSF peptides), or VT in the presence of 100-fold molar excess of T7c. The concentrations used, 10–20 ng/mL VT and 200–400 ng/mL Ang1, are estimated molar equivalents (0.71–1.43 nM). Thirty minutes later, ECs were stimulated with thrombin, 0.1% BSA (vehicle/negative control), or EDTA (positive control). Another 30mins later, the amount of FITC-dextran diffusion into the lower chambers (A, D) provides a measure of endothelial permeability. CMTPX-labeled tumor cells (TCs) were then dispensed into inserts, and the amount of TC fluorescence emitting from the underside of insert membranes after 20 h (B–C) or 28 h (E) reflects the efficiency of trans-endothelial TC migration. […] Three experiments (twice with HMVEC-LBl and once with HMVEC-DBl) were run with n = 3–5 inserts (independent biological replicates) per group and analyzed by two-sampled unpaired t-tests. […]
Endothelial cells (ECs) were grown on cell culture inserts with uncoated 8-μm-pore PET filter membranes to 100% confluency. […] After 30 min of thrombin stimulation or 4–6 h of TC-CM stimulation, FITC fluorescence (ex/em = 490/520 nm) was measured from a 50 μl sample of the lower chamber media. […]

[2] = target: T1, mouse Tie2-Fc (Fc-conjugated extracellular domain of Tie2) (mouse, UniProt Q02858 23-746); assay: SPR
T1 chain: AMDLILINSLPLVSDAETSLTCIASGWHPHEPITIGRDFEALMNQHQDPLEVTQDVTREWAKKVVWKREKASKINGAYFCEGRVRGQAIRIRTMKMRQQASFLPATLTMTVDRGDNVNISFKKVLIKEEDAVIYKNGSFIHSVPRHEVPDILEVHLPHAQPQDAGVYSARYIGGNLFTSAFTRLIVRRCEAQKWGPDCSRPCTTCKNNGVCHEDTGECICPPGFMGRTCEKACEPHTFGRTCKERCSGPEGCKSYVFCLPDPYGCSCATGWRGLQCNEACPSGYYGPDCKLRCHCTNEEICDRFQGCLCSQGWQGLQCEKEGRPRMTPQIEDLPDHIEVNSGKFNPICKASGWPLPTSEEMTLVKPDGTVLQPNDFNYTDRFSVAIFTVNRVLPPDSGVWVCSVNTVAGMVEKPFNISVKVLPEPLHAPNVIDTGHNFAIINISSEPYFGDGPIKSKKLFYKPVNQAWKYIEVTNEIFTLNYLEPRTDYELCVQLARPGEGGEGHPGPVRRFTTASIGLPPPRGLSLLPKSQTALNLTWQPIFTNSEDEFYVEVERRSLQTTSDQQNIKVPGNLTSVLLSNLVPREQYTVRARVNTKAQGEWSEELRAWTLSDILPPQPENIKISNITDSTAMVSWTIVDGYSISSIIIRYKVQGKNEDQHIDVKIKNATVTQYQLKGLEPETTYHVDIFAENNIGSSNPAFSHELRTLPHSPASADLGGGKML

Molecule: CHHHRHSF [Vasculotide, 4-armed maleimide-functionalized polyethylene glycol (PEG) backbone to link together four cysteine-capped T7 peptides, that is, CHHHRHSF]
thrombin-stimulated migration of CMTPX-labeled TCs ([1]; 28 h): trends of reducing thrombin-stimulated migration
TC migration effect of VT in presence of 100-fold molar excess of T7c [1]: dampened the effects of VT

Kd [2]: 0.237 nM
B1: recombinant human Ang1 (rhAng1) (ligand, UniProt Q15389 16-498, looked up)
chain: HIGCSNQRRSPENSGRRYNRIQHGQCAYTFILPEHDGNCRESTTDQYNTNALQRDAPHVEPDFSSQKLQHLEHVMENYTQWLQKLENYIVENMKSEMAQIQQNAVQNHTATMLEIGTSLLSQTAEQTRKLTDVETQVLNQTSRLEIQLLENSLSTYKLEKQLLQQTNEILKIHEKNSLLEHKILEMEGKHKEELDTLKEEKENLQGLVTRQTYIIQELEKQLNRATTNNSVLQKQQLELMDTVHNLVNLCTKEGVLLKGGKREEEKPFRDCADVYQAGFNKSGIYTIYINNMPEPKKVFCNMDVNGGGWTVIQHREDGSLDFQRGWKEYKMGFGNPSGEYWLGNEFIFAITSQRQYMLRIELMDWEGNRAYSQYDRFHIGNEKQNYRLYLKGHTGTAGKQSSLILHGADFSTKDADNDNCMCKCALMLTGGWWFDACGPSNLNGMFYTAGQNHGKLNGIKWHYFKGPSYSLRSTTMMIRPLDF
notes: angiopoietin-1, human, recombinant; also called angiopoietin-1; source: bought: R&D Systems (named for the Boyden chamber experiments)
